Test results as given in patent US11400106B2, “Methods for inhibiting microbe growth” (priority 2018, dated 2022).
Like-named read-outs stand apart in the source and are kept apart here.

How the values were obtained:
S. aureus [1] = experiment: microbe, parasite or virus in culture; conditions: for effect of 25 mM sodium bicarbonate on antibacterial activity: S. aureus, result in words; for MIC: Staphylococcus aureus, 18 h, read-out: MIC, S. aureus, MHB−
E. coli [2] = experiment: microbe, parasite or virus in culture; assay type: cell-based, Escherichia coli; conditions: for MIC: Escherichia coli, 18 h, MHB in the absence of sodium bicarbonate, read-out: MIC, E. coli, MHB−
S. aureus [3] = experiment: Checkerboard microdilution with nigericin; assay type: cell-based, Staphylococcus aureus
Description: Shown are microdilution checkerboard analyses, where the extent of inhibition is shown as a heat plot, such that the darkest checkerboard square represents full bacterial growth.

E. coli [4] = experiment: Checkerboard microdilution with sodium bicarbonate against E. coli; assay type: cell-based, Escherichia coli
Method: (§1) In the following experiments, bacterial cells were cultured in 96-well microtiter plates in cation-adjusted Mueller-Hinton Broth (MHB) for 18 h at 37° C. The main strains used were E. coli (K-12 BW25113) (placed in stationary incubator) and S. aureus (Newman Strain) (incubated at 250 r.p.m). Knockout strains (ΔtolcC and ΔychM) were used from the Keio knockout collection (Baba et al., Construction of Escherichia coli K-12 in-frame, single-gene knockout mutants: the Keio collection. Mol Syst Biol 2, 2006 0008, doi:10.1038/msb4100050 (2006)). For MIC determination and checkerboard analyses, Clinical & Laboratory Standards Institute (CLSI) protocol was used. […] DiSC3 loading of S. aureus cells was performed as previously described (Farha et al., Collapsing the proton motive force to identify synergistic combinations against Staphylococcus aureus. Chemistry & biology 20, 1168-1178, doi:10.1016/j.chembiol.2013.07.006 (2013)). CCCP concentration of 20 μM was used. pH adjustments were made by addition of HCl or NaOH. INT assay and ATP bioluminescence assays were performed as previously described (Farha et al., Collapsing the proton motive force to identify synergistic combinations against Staphylococcus aureus. Chemistry & biology 20, 1168-1178, doi:10.1016/j.chembiol.2013.07.006 (2013)). For chemical-genomic studies, the Keio library was grown overnight in cation-adjusted MHB broth, in 384-well plates. From these, treatment plates (25 mM sodium bicarbonate, or a sterile water control) were inoculated and grown for 15 hours at 37° C., in a stationary incubator. Data was normalized according to Mangat et al (Mangat et al., Rank ordering plate data facilitates data visualization and normalization in high-throughput screening. J Biomol Screen 19, 1314-1320, doi:10.1177/1087057114534298 (2014)), with gene products and GO terms mined from EcoCyc. The GFP promoter library (Keseler et al., EcoCyc: fusing model organism databases with systems biology. Nucleic Acids Res 41, D605-612, doi:10.1093/nar/gks1027 (2013)) was grown for 18 hours at ambient temperature with the same inoculation strategy as with the Keio collection. The analysis pipeline of Zaslaver et al (Zaslaver et al., A comprehensive library of fluorescent transcriptional reporters for Escherichia coli. Nat Methods 3, 623-628, doi:10.1038/nmeth895 (2006)) was used to generate maps of promoter activity, from which lists of promoters with increased or decreased activity were compiled.
(§2) The effect of sodium bicarbonate on the activity of various antibacterial agents was investigated. Clinical isolates of various bacteria were obtained from the American Type Culture Collection (“ATCC”) and the International Health Management Associates (“IHMA”). Fractional inhibitory concentration indices (FICIs) were determined by setting up standard checkerboard broth microdilution assays in 96-well microtiter plates with serially diluted 8 (or 10) concentrations of each drug (sodium bicarbonate and the antibacterial agent). The protocol for checkerboard analyses was based on the CLSI guidelines. Plates were incubated at 37° C. for 18 hours, and optical density was read at 600 nm. At least 3 replicates were done for each query compound.
(§3) The FIC index (FICI) is the sum of the two FICs. Chemical-chemical interactions with ΣFIC of less or equal to 0.5 were deemed synergistic.
(§4) As validation, three of the antibiotic agents were further tested with checkerboard analyses. Checkerboard broth microdilution assays were set up in 96-well microtiter plates with serially diluted 8 (or 10) concentrations of each compound (sodium bicarbonate and the antibiotic). The protocol for checkerboard analyses was based on the CLSI guidelines. Plates were incubated at 37° C. for 18 hours, and optical density was read at 600 nm. At least 3 replicates were done for each query compound.

[5] = tested on: methicillin-resistant Staphylococcus aureus (MRSA); experiment: Susceptibility testing of MRSA clinical isolates (n=100); assay type: cell-based; conditions: MRSA (n=100); comparators in the absence of bicarbonate
Method: (§5) This study included one hundred (n=100) clinical isolates of methicillin-resistant Staphylococcus aureus (MRSA) and ninety-two (n=92) clinical isolates of P. aeruginosa. All samples were collected from patients at Hamilton Health Sciences hospitals (Hamilton, Ontario, Canada). Isolates, regardless of site of infection, were selected for study if they were resistant to three or more antibiotics. The isolates were cultured on plates and subsequently tested for antimicrobial susceptibility. Initial culture and antibiotic susceptibility testing were performed by Hamilton General Hospital General Microbiology Laboratory using a VITEK 2 Automated System and its Advanced Expert System (bioMerieux) and were compliant with Clinical & Laboratory Standards Institute (CLSI) antibiotic susceptibility testing formulations. Both quantitative minimum inhibitory concentration (MIC) and CLSI breakpoints were reported for each antibiotic. Additionally, a total of 7 conjunctival-sourced ocular isolates of Streptococcus pneumoniae collected by the International Health Management Associates (IHMA) from various locations in the United States were used in the study.
(§6) Antimicrobial sensitivity of the pathogenic strains was determined in compliance with the CLSI protocol. Mueller-Hinton agar plates were used to streak out bacterial species and the direct colony suspension method for inoculum preparation was used to make a suspension of the organism in saline to the density of a McFarland 0.5 turbidity standard. Cation-adjusted Mueller-Hinton broth (CA-MHB) manufactured according to ISO technical standard was used for susceptibility testing in standard 96-well microdilution plates. All antibiotics were purchased as powders from Sigma-Aldrich Canada Co. (Oakville, Canada) and dissolved in appropriate solvent to provide stock solutions as instructed by the manufacturer. Desired test antibiotic solutions were diluted in solvent at a highest test concentration resulting in 256 μg/mL. Where sodium bicarbonate was used, aqueous sterile-filtered sodium bicarbonate solution (7.5% stock) from Sigma-Aldrich Canada Co. (Oakville, Canada) was diluted to the desired concentration in CAMHB. Plates were incubated for 18 hours at 37° C. and read at 600 nm on a Tecan, infinite M1000 PRO plate reader. In accordance with CLSI, methods with appropriate medium supplements for fastidious streptococci (2.5% lysed horse blood, Innovative Research, Inc., Novi, Mich.) were used. […] All MICs in the study were conducted in duplicate.

P. aeruginosa = experiment: Susceptibility testing of P. aeruginosa clinical isolates (n=92); assay type: cell-based, Pseudomonas aeruginosa; conditions: P. aeruginosa (n=92); comparators in the absence of bicarbonate
Method: as §5, §6

S. aureus [6] = experiment: Checkerboard microdilution with sodium bicarbonate against S. aureus; assay type: cell-based, Staphylococcus aureus
Method: as §1, §2, §3, §4

| SMILES | MIC, S. aureus, MHB+ (S. aureus [1]) | effect of 25 mM sodium bicarbonate on antibacterial activity (S. aureus [1]) | MIC (S. aureus [1]) | effect of 25 mM sodium bicarbonate on antibacterial activity (E. coli [2]) | MIC (E. coli [2]) | interaction with nigericin (checkerboard) (S. aureus [3]) | interaction with sodium bicarbonate (checkerboard) (E. coli [4]) | MIC90 comparison of topical ophthalmic antibiotics [5] | MIC90 comparison of topical ophthalmic antibiotics (P. aeruginosa) | MIC, E. coli, MHB+ (E. coli [2]) | MIC (E. coli [2]; antibiotic agents) | interaction with sodium bicarbonate (checkerboard) (S. aureus [6]) |
| --- | --- | --- | --- | --- | --- | --- | --- | --- | --- | --- | --- | --- |
| C[C@@H]1O[C@@H]1P(=O)(O)O [Fosfomycin] | 64 | suppressed | 16 µg/mL | suppressed | 4 µg/mL | antagonistic interactions | suppressed | – | – | – | – | – |
| COc1c(N2C[C@@H]3CCCN[C@@H]3C2)c(F)cc2c(=O)c(C(=O)O)cn(C3CC3)c12 [Moxifloxacin] | – | – | 0.125 µg/mL | – | 0.0313 µg/mL | – | – | resistance | resistance | – | – | – |
| CO[C@@H]1[C@@H](OC(N)=O)[C@@H](O)[C@H](Oc2ccc3c(O)c(NC(=O)c4ccc(O)c(CC=C(C)C)c4)c(=O)oc3c2C)OC1(C)C [Novobiocin] | 0.5 | suppressed | 0.031 µg/mL | suppressed | 32 µg/mL | antagonistic interactions | suppressed | – | – | – | – | – |
| [H]/N=C(/N)N[C@H]1[C@H](O)[C@@H](O)[C@H](O[C@@H]2O[C@@H](C)[C@](O)(C=O)[C@H]2O[C@@H]2O[C@@H](CO)[C@H](O)[C@@H](O)[C@@H]2NC)[C@@H](N/C(N)=N\[H])[C@@H]1O [Streptomycin] | 0.5 μg of antimicrobial agent/mL of buffer | – | 2 µg/mL | – | – | – | synergistic interactions | – | – | 0.12 μg of antimicrobial agent/mL of buffer | 0.5 µg/mL | synergistic interactions |
